Test results from US9624213B2 (Plexxikon Inc., priority 2011, dated 2017).

Target: B-Raf V600E (Homo sapiens (Human), UniProt P15056, V600E)
Experiment: B-Raf V600E kinase biochemical activity (AlphaScreen, biotin-MEK1 substrate)
Details: 100 μM ATP
Procedure: Assays for biochemical and cell based activity are known in the art, for example, as described in PCT publication WO 2007/002433, the disclosure of which is hereby incorporated by reference as it relates to such assays. For example, the biochemical activity IC50 values are determined with respect to inhibition of B-Raf V600E kinase activity or p-Erk kinase activity, where inhibition of phosphorylation of a peptide substrate is measured as a function of compound concentration. Compounds to be tested are diluted in dimethyl sulfoxide to a concentration of 0.1 mM. These are serially diluted 15 μL into 30 μL of dimethyl sulfoxide seven times in 96 well plates for a total of 8 dilution points, and for each dilution point 1 μL is added to a well of an assay plate. Plates are prepared such that each well in a 384 well plate contains 1 μL of compound in 10 μL volume with 0.1 ng Raf enzyme (i.e. any of B-Raf, c-Raf-1 or B-Raf V600E, Upstate Biotechnology or prepared by methods known to one of skill in the art), 50 mM HEPES, pH 7.0, 50 mM NaCl, 2 mM MgCl2, 1 mM MnCl2, 0.01% Tween-20, 1 mM DTT, and 100 nM biotin-MEK1 as substrate. The reaction is started with addition of 10 μL of 200 μM ATP (i.e. final 100 μM ATP). After incubation of the kinase reaction for 45 minutes at room temperature, 5 μL/well of Stop Solution is added (25 mM Hepes pH 7.5, 100 mM EDTA, 0.01% BSA with donor beads (Streptavidin coated beads, Perkin Elmer), acceptor beads (Protein A coated, Perkin Elmer), and anti phosphor MEK1/2 antibody (CellSignal), each at final concentration 10 μg/mL). The plates are incubated for 3 hours at room temperature and read on Envision reader (Perkin Elmer). Phosphorylation of Mek1 results in binding of the anti-phosphor-MEK1/2antibody and association of the donor and acceptor beads such that signal correlates with kinase activity. The signal vs. compound concentration is used to determine the IC50.

B-Raf V600E, sequence (P15056 whole entry V600E): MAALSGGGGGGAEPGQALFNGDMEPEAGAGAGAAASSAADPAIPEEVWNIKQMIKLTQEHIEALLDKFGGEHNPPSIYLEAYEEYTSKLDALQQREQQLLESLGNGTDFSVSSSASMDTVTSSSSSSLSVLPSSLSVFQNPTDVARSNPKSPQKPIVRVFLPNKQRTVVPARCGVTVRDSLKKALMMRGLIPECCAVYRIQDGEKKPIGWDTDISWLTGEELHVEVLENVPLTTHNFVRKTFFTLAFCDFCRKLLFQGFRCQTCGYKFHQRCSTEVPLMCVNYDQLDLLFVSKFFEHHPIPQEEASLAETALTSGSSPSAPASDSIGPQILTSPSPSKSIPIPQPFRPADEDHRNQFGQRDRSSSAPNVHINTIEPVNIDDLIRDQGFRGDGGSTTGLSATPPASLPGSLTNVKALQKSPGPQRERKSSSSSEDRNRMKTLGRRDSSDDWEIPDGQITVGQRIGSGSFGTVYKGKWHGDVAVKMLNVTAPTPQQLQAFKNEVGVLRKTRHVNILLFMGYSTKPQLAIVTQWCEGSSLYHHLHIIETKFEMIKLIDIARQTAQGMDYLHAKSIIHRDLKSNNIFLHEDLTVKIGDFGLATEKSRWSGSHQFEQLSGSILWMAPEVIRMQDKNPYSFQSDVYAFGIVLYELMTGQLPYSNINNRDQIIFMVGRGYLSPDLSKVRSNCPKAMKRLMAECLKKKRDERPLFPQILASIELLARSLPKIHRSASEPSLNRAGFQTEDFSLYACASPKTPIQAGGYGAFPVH

| IC50 [µM] | SMILES |
| --- | --- |
| < 0.1 | Cn1cc(-c2cnc3[nH]cc(C(=O)c4cccc(NS(=O)(=O)CC5CC5)c4F)c3c2)cn1 [Compound P-0042, 1-cyclopropyl-N-[2-fluoro-3-[5-(1-methylpyrazol-4-yl)-1H-pyrrolo[2,3-b]pyridine-3-carbonyl]phenyl]methanesulfonamide] |
| < 0.1 | CCN(C)S(=O)(=O)Nc1ccc(F)c(C(=O)c2c[nH]c3ncc(-c4ccc(C5(C#N)CC5)cc4)cc23)c1F [Compound P-0239, 5-[4-(1-cyanocyclopropyl)phenyl]-3-[3-[[ethyl(methyl)sulfamoyl]amino]-2,6-difluoro-benzoyl]-1H-pyrrolo[2,3-b]pyridine] |
| < 0.1 | CN(C)S(=O)(=O)Nc1ccc(F)c(C(=O)c2c[nH]c3ncc(-c4ccc(C5(C#N)CC5)cc4)cc23)c1F [Compound P-0237, 5-[4-(1-cyanocyclopropyl)phenyl]-3-[3-(dimethylsulfamoylamino)-2,6-difluoro-benzoyl]-1H-pyrrolo[2,3-b]pyridine] |
| < 0.1 | N#CC1(c2ccc(-c3cnc4[nH]cc(C(=O)c5c(F)ccc(NS(=O)(=O)N6CCCC6)c5F)c4c3)cc2)CC1 [Compound P-0248, N-[3-[5-[4-(1-cyanocyclopropyl)phenyl]-1H-pyrrolo[2,3-b]pyridine-3-carbonyl]-2,4-difluoro-phenyl]pyrrolidine-1-sulfonamide] |
